Key:
C. reinhardtii CC-1928 = assay: Effect of copper on activity of hydrazones: in vitro growth inhibition of C. reinhardtii in TAP Cu minus / TAP Cu plus medium (Example 10); format: cell-based, Chlamydomonas reinhardtii; conditions: for inhibition of growth at 1 µg/mL: Chlamydomonas reinhardtii, TAP Cu minus medium, read-out: % Inhn. Minus Copper Observed; for inhibition of growth at 1 µg/mL / % Inhn. Plus Copper Observed: test compound 1 μg/mL, 48 h; for % Inhn. Plus Copper Observed: TAP Cu plus medium (CuCl2); for % Inhn. by copper chloride alone: CuCl2, 10 μM, TAP Cu plus vs TAP Cu minus without test compound, across experiments
Method in brief: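 Washed cells (suspension 2×10^5 spores per mL) added to compound at 1 μg/mL in Chelex-treated TAP Cu minus or TAP Cu plus (20 μM CuCl2). After 48 h at 27 °C, growth read by light scattering; % inhibition vs compound-free wells, plus-Cu predicted values by Colby formula from minus-Cu data.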

[1] = tested on: Synechocystis sp. strain 6803; assay: Growth inhibition of Synechocystis by hydrazones and isolated metal-hydrazone complexes, BG-11 Cu minus medium (Example 12); format: cell-based; conditions: for inhibition of growth at 0.05 µg/mL / Complex % Inhn.: Test Concn. 0.05 μg/ml
Procedure: In vitro toxicity assays against the cyanobacterium (blue-green alga) Synechocystis sp. strain 6803 were conducted using BG-11 medium except that copper micronutrient, normally included as CuSO4.5H2O, was omitted. The medium, termed BG-11 Cu minus, was prepared by dissolving 1.5 g NaNO3, 40 mg K2HPO4, 6 mg citric acid, 1 mg Na2EDTA and 20 mg Na2CO3 in 1 liter of milli Q water and treating the solution with 0.5 g Chelex 100 resin (Bio-Rad Analytical grade, 50-100 mesh, sodium form, cat#142-2822) by stifling at room temperature for 1 h. 900 mL were decanted and 67.5 mg MgSO4.7H2O, 32.4 mg […], 5.4 mg ferric ammonium citrate and 0.9 mL trace metal mix A5 without copper (2.86 g H3BO3, 1.81 g MnCl2.4H2O, 222 mg ZnSO4.7H2O, 390 mg Na2MoO4.2H2O and Co(NO3)2.6H2O in 1 L Milli Q water) was added. The pH was adjusted to 7.1 and the medium was filter-sterilized. Medium containing copper (BG-11 Cu plus) was prepared by adding CuCl2.2H2O to the BG-11 Cu minus medium at 0.2 μM. Test compounds were dissolved in dimethylsulfoxide (DMSO) at 2 mg/mL then appropriate dilutions in BG-11 Cu minus and BG-11 Cu plus media were prepared in sterilized microcentrifuge tubes. 100 μL aliquots were dispensed into flat-bottomed 96-well microtiter plates. Synechocystis was maintained under 24 h of light on BG-11 agar plates at 27° C. A loopful of cells was added to 50 mL of BG-11 Cu minus growth medium and the culture was incubated with shaking at 200 rpm at 27° C. for 24 h. The culture (10 to 20 mL aliquot) was centrifuged in a bench centrifuge at 2400 rpm for 2 min. The resulting cell pellet was resuspended in 5 mL sterile milli Q water (which had been treated with Chelex 100 resin using 0.5 g resin per liter of water by stirring at room temperature for 1 h), and recentrifuged. The cells were resuspended in BG-11 Cu minus medium, and the suspension adjusted to 4×10^5 spores per mL. Microtiter plates containing compounds as described above were inoculated with 100 μL of this cell suspension and the plates incubated at 27° C. for 72 h before assessing algal growth by measuring light scattering in a NepheloStar plate reader. Growth inhibition was determined by comparing growth in the presence of test compound with growth in control wells lacking test compound. Hydrazones and their isolated metal complexes were compared with respect to their in vitro activity toward C. reinhardtii and the cyanobacterium (blue-green alga) Synechocystis sp. strain 6803. Metal complexes of hydrazones were prepared by precipitation from ethanol with various metal salts at 1:1, 2:1 or 3:1 molar ratios, as described in general by Ainscough, Brodie, Dobbs, Ranford, and Waters (Inorganica Chimica Acta 1998, 267, 27-38, which is expressly incorporated by reference herein). In vitro assays against Synechocystis were conducted as described in Example 11 using BG-11 Cu minus medium. Growth inhibition was determined by comparing growth in the presence of test compound with growth in control wells lacking test compound.

[2] = Synechocystis, read-out: Hydrazone % Inhn.

| Structure (SMILES) | inhibition of growth at 1 µg/mL (C. reinhardtii CC-1928) [%] | % Inhn. Plus Copper Observed (C. reinhardtii CC-1928) [%] | other results |
| --- | --- | --- | --- |
| O=C(N/N=C/c1cc(Cl)cc(Cl)c1O)c1ccccc1 [Compound 1] | 16 | 96 | inhibition of growth at 0.05 µg/mL [1, 2]: 35% |
| C/C(=N\NC(=O)c1ccccc1)c1cc(Cl)cc(Cl)c1O [Compound 6] | 13 | 98 | inhibition of growth at 0.025 µg/mL ([1]; Synechocystis, Test Concn. 0.025 μg/ml, read-out: Hydrazone % Inhn.): 70% |
| O=C(N/N=C/c1cc(Cl)cc(Cl)c1O)c1ccccc1O [Compound 7] | 29 | 94 | inhibition of growth at 0.0125 µg/mL ([1]; Synechocystis, Test Concn. 0.0125 μg/ml, read-out: Hydrazone % Inhn.): 62% |
| C/C(=N\NC(=O)c1ccc(Cl)cc1)c1cc(Cl)cc(Cl)c1O [Compound 12] | 4 | 96 | – |
| O=C(N/N=C/c1cc(Cl)cc(Br)c1O)c1ccccc1 [Compound 14] | 6 | 97 | – |
| O=C(N/N=C/c1cc(Cl)cc(Br)c1O)c1ccc(Cl)cc1 [Compound 15] | 11 | 97 | – |
| O=C(N/N=C/c1cc(Cl)cc(Br)c1O)c1ccccc1O [Compound 18] | 13 | 95 | – |
| O=C(N/N=C/c1ccc(Cl)c(Cl)c1O)c1ccccc1 [Compound 21] | 6 | 94 | – |
| C/C(=N\NC(=O)c1cccc(C)c1)c1cc(Cl)cc(Cl)c1O [Compound 25, 3-methyl-benzoic acid [1-(3,5-dichloro-2-hydroxyphenyl)-ethylidene]-hydrazide] | 33 | 95 | – |
| C/C(=N\NC(=O)c1ccc(C)cc1)c1cc(Cl)cc(Cl)c1O [Compound 26] | 5 | 94 | inhibition of growth at 0.05 µg/mL [1, 2]: 50% |
| O=C(N/N=C/c1cc(Cl)cc(C(F)(F)F)c1O)c1ccccc1 [Compound 27] | 30 | 96 | inhibition of growth at 0.05 µg/mL [1, 2]: 41% |
| O=C(N/N=C/c1cc(C(F)(F)F)cc(C(F)(F)F)c1O)c1ccc(Cl)cc1 [Compound 32] | 21 | 97 | inhibition of growth at 0.05 µg/mL [1, 2]: 68% |
| O=C(N/N=C/c1c(Cl)ccc(Cl)c1O)c1ccc(Cl)cc1 [Compound 45] | 9 | 96 | – |
| O=C(N/N=C/c1cccc(Cl)c1O)c1ccc(Cl)cc1 [Compound 52] | -4 | 88 | inhibition of growth at 0.05 µg/mL [1, 2]: 45% |
| O=C(N/N=C/c1c(C(F)(F)F)ccc(Cl)c1O)c1ccc(Cl)cc1 [Compound 56] | 11 | 97 | – |
| Cc1ccccc1C(=O)N/N=C/c1cc(Cl)cc(Cl)c1O [Compound 63] | -18 | 93 | inhibition of growth at 0.05 µg/mL [1, 2]: 23% |
| CC(=O)[O-].CC(=O)[O-].O=C(N/N=C/c1cc(Cl)cc(Cl)c1O)c1ccccc1.[Cu+2] [Compound 72] | – | – | Complex % Inhn. [1]: 98% |
| CC(=O)[O-].CC(=O)[O-].O=C(N/N=C/c1cc(Cl)cc(Cl)c1O)c1ccccc1.O=C(N/N=C/c1cc(Cl)cc(Cl)c1O)c1ccccc1.[Cu+2] [Compound 73] | – | – | Complex % Inhn. [1]: 97% |
| O=C(N/N=C/c1cc(Cl)cc(Cl)c1O)c1ccccc1.O=C(N/N=C/c1cc(Cl)cc(Cl)c1O)c1ccccc1.O=S(=O)([O-])[O-].[Cu+2] [Compound 74] | – | – | Complex % Inhn. [1]: 95% |
| O=C(N/N=C/c1cc(Cl)cc(Cl)c1O)c1ccccc1.[Cl-].[Cl-].[Cu+2] [Compound 75] | – | – | Complex % Inhn. [1]: 97% |
| O=C(N/N=C/c1cc(Cl)cc(Cl)c1O)c1ccccc1.O=C(N/N=C/c1cc(Cl)cc(Cl)c1O)c1ccccc1.[Cl-].[Cl-].[Cu+2] [Compound 76] | – | – | Complex % Inhn. [1]: 96% |
| O=C(N/N=C/c1cc(Cl)cc(Cl)c1O)c1ccccc1.O=C(N/N=C/c1cc(Cl)cc(Cl)c1O)c1ccccc1.[Cl-].[Cl-].[Mn+2] [Compound 77] | – | – | Complex % Inhn. [1]: 35% |
| O=C(NN=Cc1cc(Cl)cc(Cl)c1O)c1ccccc1.O=C(NN=Cc1cc(Cl)cc(Cl)c1O)c1ccccc1.[Cl-].[Cl-].[Zn+2] [Compound 78] | – | – | Complex % Inhn. [1]: 59% |
| [Cl][Cu][Cl] [CuCl2, Copper chloride, reference compound] | – | – | % Inhn. by copper chloride alone (C. reinhardtii CC-1928): −11.7 ± 6.0%; % Inhn. by copper chloride alone (C. reinhardtii CC-1928; listed as Copper chloride): slight enhancement of growth |
